# Data taken from a melting point compilation (Tetko et al.; mined from patent text by program, amines drawn as free bases though some values may be those of a salt).
row,SMILES,melting point [°C]
1,Cn1c(=O)cnc2cccc(Oc3cc(-c4ccc(C(F)(F)F)cc4)ncn3)c21,158
2,CCCc1nc2c(N)nc3ccccc3c2n1CC(C)C,191 to 192
3,O=C1CN(c2ccccc2)C(=O)N1CCBr,146 to 147
4,CCCc1c2c(cc3[nH]c(=O)c(=O)oc13)CCCC2,175 to 180
5,O=C1Nc2ccc(Cl)cc2Cc2sccc21,264 to 266
6,OCC1OC(n2cnc3c(NN4CCCCC4)nc(F)nc32)C(O)C1O (stereo not given),197 to 199
7,CN1C(=O)CN(c2cccc(Cl)c2)NC1=O,178 to 180
8,CC(=O)OCC(=O)C1C(C)CC2C3C=C(Cl)C4=CC(=O)C=CC4(C)C3C(O)CC21C (stereo not given),192
9,CCOC(=O)c1cc2c(OC=O)c(OC[C@H]3CO3)ccc2[nH]1,123 to 125
10,Nc1cc(Oc2ccncc2)ccc1[N+](=O)[O-],170 to 175
11,O=C(NCC12CC3CC(CC(C3)C1)C2)c1cc(-c2cc(F)cnc2N2CCC(C(=O)O)CC2)ccc1Cl,130 to 135
12,O=[N+]([O-])c1cc(Cl)c(Cl)cc1NC1C=CCC1 (stereo not given),85 to 86
13,Cc1ccc(C(N)(c2ccc3c(c2)c(-c2cccc(Cl)c2)nc2nnnn23)c2cncn2C)cc1 (stereo not given),150
14,CCCOCCOC(=O)C1=C(C)NC(C)=C([N+](=O)[O-])C1c1cccc([N+](=O)[O-])c1 (stereo not given),161
15,Cc1ccc(-c2cc(C(F)(F)F)n3cnc(-c4cccnc4)c3n2)cc1C(F)(F)F,236
16,Clc1cccc2cc3cccc(Cl)c3cc12,155
17,Nc1nc(N)c2ncn(COCCOCCO)c2n1,76 to 82
18,CCCCC(C(N)=O)n1ccnc1 (stereo not given),90 to 91
19,CCOc1ccccc1OCC1CN=C(N)O1 (stereo not given),130
20,C=C(CCC(C)C1CCC2C3=C(C(=O)CC21C)C1(C)CCC(=O)C(C)C1CC3O)C(C)C(=O)OC (stereo not given),100 to 101
21,COc1ccc(-c2cnn3cnnc3n2)cc1,282 to 284
22,COc1ccc(N)c(CCc2ccccn2)c1,77.5 to 78.5
23,CC(=O)N[C@@H](C(=O)Oc1ccccc1)C(C)(C)SN=O,120
24,CC(=O)Nc1ccc2oc3c(c2c1)CCCC3,196 to 198
25,COCOc1cc(C(C)(C)C)ccc1C(=O)O,72
26,CCSc1cn(-c2ccccn2)c2c1C(=O)CC(C)(C)C2,158 to 159
27,COC(=O)Cn1c(=O)c2ccccc2n(CCCCCl)c1=O,119 to 120

row,SMILES,melting point [°C]
1,FC(F)(F)c1nn(-c2c(Cl)cc(Cl)cc2Cl)cc1Br,93 to 94
2,CC(C)(C)C1OCC(S)(CCO)CO1 (stereo not given),68
3,Nc1nc2ccccc2c2c1ncn2CCOCCCc1ccncc1,160 to 162
4,N#Cc1cnc2cc(-c3ccc(C=O)cc3)sc2c1Cl,300 to 305
5,O=C1Nc2ccc(F)cc2C1c1ncnc2nn(C3CCCCC3)cc12 (stereo not given),294 to 298
6,CCn1ncc2c1ncc1c(N3CCN(C)CC3)nc3cc(C)nn3c12,167 to 169
7,CC(=O)OC1CCc2c(C#N)cccc21 (stereo not given),65
8,CCOC(=O)C1=CNc2cccnc2S1,194 to 195
9,COc1cc(Nc2nc3ccnc(-c4ccc(N)cc4)c3o2)cc(OC)c1OC,148 to 151
10,CC(C)(C)c1nn(C(C)(C)C)c(N)c1C#N,78 to 80
11,COc1cc(NC(=O)C(F)(F)F)ccc1N1CCN(CCN(C(=O)C2CCCCC2)c2ccccn2)CC1,144 to 148
12,CCOC(=O)c1cn(-c2ccc(F)cc2)c2cc(-c3cc(C)no3)ccc2c1=O,214 to 216
13,C=C1CCN(c2cn(-c3cccnc3)nc2Cl)C1=O,117 to 118
14,FC(F)(F)CSc1nc2cc(Cl)c(Cl)cc2[nH]1,144 to 146
15,Cc1ccc(C(=S)c2cc(C(C)(C)C)c(O)c(C(C)(C)C)c2)cc1,135 to 136
16,CCOC(=O)C1=C(O)CCn2c1nc1ccccc12,233 to 235
17,CCNc1ccc2c(c1)CNC2,69 to 71
18,CCC1CC(N)=NN1c1ccccc1 (stereo not given),123 to 125
19,CC(CCC=CC(=O)O)C1CCC2C3CCC4CC(O)CCC4(C)C3CC(O)C12C (stereo not given),204 to 208
20,COc1cccc2c1C(O)CC21CCN(CCCC(=O)c2ccc(F)cc2)C1 (stereo not given),152 to 154
21,CC/C(=C\CCC(O)(CC)CC)c1cc(COc2ccc(CO)c(CO)c2)cs1,63 to 64
22,CCOc1cc2ncc(C#N)c(CC(=O)c3ccc(Br)cc3)c2cc1OCC,210 to 213
23,CCC=C1SC(=S)N(CC(=O)O)C1=O,138 to 140
24,CN1CCCC1=NC(=O)Nc1cccc(Br)c1,138 to 149
25,CC1(C)SC(=NO)NC1=O,198 to 200
26,COc1cc(Nc2c(C#N)cnc3cc(-c4ccc(C(=O)O)cc4)sc23)c(Cl)cc1Cl,> 300
27,COC(=O)c1cccc(-c2ncc(OCCCN(C)C)cn2)c1,66

# Continued, values first:
row,melting point [°C],SMILES
1,125 to 126,CON=C(c1noc(C)n1)c1ccccc1COc1ccc(Cl)cc1
2,69,CCCCOc1ccc(Cc2nn(-c3ccccc3Cl)c(=S)o2)cc1
3,282 to 284,Cc1ccc(-c2n[nH]c(=O)c(-c3ccccc3)c2-c2ccc(C)cc2)cc1
4,150,CCCc1nc(SC(F)F)c(C(=O)O)n1Cc1ccc(-c2ccccc2S(=O)(=O)NC(=O)NCc2ccccc2)cc1
5,150,CC(CN1CCCC1)N1c2ccccc2Sc2ccc(C(N)=S)cc21 (racemic)
6,223 to 224,CCCCc1nc2c(N)nc3ccccc3c2n1CCCCNS(=O)(=O)c1cccc2c(N(C)C)cccc12
7,168 to 170,CC(C)n1nc(-c2sc(C(=O)NCc3ccccn3)nc2-c2cccc(Cl)c2)ccc1=O
8,148 to 150,O=C1N[C@@H](Cc2ccccc2)[C@@H](COS(=O)(=O)c2ccc([N+](=O)[O-])cc2)O1
9,118 to 120,COc1ccc(C(=O)c2ccc(Sc3ccc(Cl)cc3)cc2)cc1OC
10,260 to 262,CCOc1ccc(-c2c(Cl)c(CN3C(=O)CCC3=O)nc3sc4c(c23)CCN(C(C)=O)C4)cc1
11,195 to 197,Oc1cccc(-n2cnc(-c3ccccc3)c2)c1
12,127 to 130,CC(C=Cc1ccc(C(=O)O)cc1)c1ccccc1 (stereo not given)
13,137 to 138,CCN(CC)CCNC(=O)COc1cccc(-n2nc(-c3ccc(F)cc3)c3cccnc32)c1
14,129 to 131,CCc1cc(CC(=O)O)n(C)c1C(=O)c1ccc(Cl)cc1
15,178 to 179,CC(C)(C)OC(=O)N1CC(CCl)c2c1cc(OCc1ccccc1)c1ncccc21 (stereo not given)
16,90.4,O=C(NO)C1(S(=O)(=O)c2ccc(Oc3ccc(Cl)cc3)cc2)CCN(Cc2ccccc2)CC1
17,101 to 103,CCc1cccc2c1S(=O)(=O)c1ccccc1O2
18,164 to 165,CCc1onc(-c2ccc(Cl)cc2)c1CCC(=O)O
19,224 to 225,O=C(Nc1nc(/C=C/c2ccc([N+](=O)[O-])cc2)cs1)c1ccccc1
20,168 to 170,Nc1csc(-c2cc3c(Oc4ccc(Cl)cc4)cncc3s2)n1
21,187,Oc1ccc(-c2ccc(O)cc2C#Cc2ccccc2)c(C#Cc2ccccc2)c1
22,129 to 133,COc1cc(C(=O)NS(=O)(=O)c2ccccc2C)ccc1Cc1c(Cl)n(C)c2ccc(CC3CCN(C)C3=O)cc12 (stereo not given)
23,164 to 166,O=C(COc1ncc(Cl)cc1Cl)Nc1ccccc1

row,melting point [°C],SMILES
1,115 to 120,CN(C)C=C(Cc1ccccc1)C(=O)c1cccnc1Cl
2,183 to 185,COc1cccc(-c2nn(Cc3ccccc3)c3ncnc(O)c23)c1
3,140 to 141,O=C(O)COCC(=O)N1CCC(C(c2ccccc2)c2ccccc2)CC1
4,129 to 130,Clc1ccc(C=Cc2ccccc2)cc1
5,104 to 106,Cc1c(-c2ccc(OCc3ccccc3)cc2)n(Cc2ccc(OCCCN3CCCCC3)cc2)c2ccc(OCc3ccccc3)cc12
6,178 to 180,O=C(C1CCN(c2ccncc2)CC1)N1CCCN(S(=O)(=O)c2ccc3ccccc3c2)CC1
7,180 to 182,N#Cc1ccc(-c2ccccc2)c(NC(=O)Nc2cccnc2)c1
8,81.5 to 82.5,COc1ccc(-c2nnsc2-c2ccccc2)cc1
9,150 to 152,CCOC(=O)Cc1ccc(NC(=O)C(COc2cccnc2)NS(=O)(=O)c2ccc(F)cc2)cc1 (racemic)
10,108,O=C1CCC(c2cccc(F)c2)(c2cccc(F)c2)[C@@H]2CN(C(=O)Cc3ccccc3)C[C@H]12 (racemic)
11,235 to 245,Cc1c(-c2ccccc2)sc2nc(NCCNC(=O)CCN3CCN(C)CC3)[nH]c(=O)c12
12,158 to 160,COC(CNC(=O)N(N=Cc1ccccc1)c1cc(Cl)c(Cc2ccc(C(=O)c3ccc(Cl)cc3)cc2)c(Cl)c1)OC
13,225,O=C(Nc1ccc(Br)cn1)Nc1cccc2c1C1CCCCN1C2=O (stereo not given)
14,132 to 136,O=C(c1ccc(Cl)cc1)N(c1ccccc1)c1ccc(OCc2ccccc2)cc1
15,149 to 150,CC(=O)OC1=C(c2ccccc2)C(=O)N(C(C)(C)c2ccccc2)C1
16,193 to 195,CNc1nc(-c2cccc(-c3cccc(-c4ccccc4)c3)c2)c2cc(OC)c(OC)cc2n1
17,190 to 194,COC(=O)c1nc2n(n1)-c1ccc(Cl)cc1N(c1ccccc1)C2
18,205 to 206,CC(C)n1nc(-c2sc(NC(=O)c3ccc(Cl)cc3)nc2-c2ccccc2)ccc1=O
19,118 to 119,COc1cc2c(cc1C(=O)COc1ccc(C(=O)OCc3ccccc3)c(O)c1)C(C)(C)CCC2(C)C
20,135 to 138,O=C1c2ccccc2C(=O)N1CCc1ccc(CCC2CCCCC2)cc1
21,153 to 155,O=C(c1ccc(-c2ccc(O)cc2)cc1)C1CC=CC1
22,137 to 140,COC[C@H]1CCCN1C(=O)c1cc(-c2ccccc2)c(=O)n2ccc3ccc(Cl)cc3c12
23,155 to 157,COc1ccc(-c2nc(-c3ccc(Br)cc3)sc2-c2ccc(OC)cc2)cc1
